# Laboratory results from ChEMBL document CHEMBL5465560, “Selectivity Literature for EUbOPEN Chemogenomic Library” (2024).
# Assays:
# [1] = target: Ribosomal protein S6 kinase alpha-4 (Homo sapiens) (UniProt O75676); test: Selectivity interaction (KinomeScan (DiscoverX)) EUB0001049a RPS6KA4; conditions: at 1 µM
# [2] = target: Death-associated protein kinase 2 (Homo sapiens) (UniProt Q9UIK4); test: Selectivity interaction (KinomeScan (DiscoverX)) EUB0001049a DAPK2; conditions: at 1 µM
# [3] = target: Tyrosine-protein kinase HCK (Homo sapiens) (UniProt P08631); test: Selectivity interaction (KinaseProfiler screening (Millipore)) EUB0000601a HCK; conditions: at 3 µM
# Tyrosine-protein kinase HCK (Homo sapiens), sequence (P08631 2-526 limits assumed): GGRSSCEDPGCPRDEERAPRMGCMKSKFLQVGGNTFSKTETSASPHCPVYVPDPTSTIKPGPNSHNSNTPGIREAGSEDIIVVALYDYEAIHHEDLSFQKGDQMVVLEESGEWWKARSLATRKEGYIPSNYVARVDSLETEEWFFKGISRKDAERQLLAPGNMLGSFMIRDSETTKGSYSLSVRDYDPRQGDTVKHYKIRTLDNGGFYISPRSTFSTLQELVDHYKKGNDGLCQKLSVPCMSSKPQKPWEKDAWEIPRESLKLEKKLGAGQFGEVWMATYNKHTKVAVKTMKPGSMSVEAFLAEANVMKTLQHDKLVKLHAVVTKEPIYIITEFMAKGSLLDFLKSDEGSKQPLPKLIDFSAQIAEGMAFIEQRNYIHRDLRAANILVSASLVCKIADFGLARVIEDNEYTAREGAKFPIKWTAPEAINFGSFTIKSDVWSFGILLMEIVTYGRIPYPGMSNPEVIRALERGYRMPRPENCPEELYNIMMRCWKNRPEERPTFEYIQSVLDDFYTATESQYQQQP
# [4] = target: Serine/threonine-protein kinase WNK1 (Homo sapiens) (UniProt Q9H4A3); test: Selectivity interaction (KinomeScan (DiscoverX)) EUB0000229b WNK1; conditions: at 10 µM
# [5] = target: Serine/threonine-protein kinase MRCK alpha (Homo sapiens) (UniProt Q5VT25); conditions: at 10 µM
# Serine/threonine-protein kinase MRCK alpha (Homo sapiens), sequence (Q5VT25 whole entry): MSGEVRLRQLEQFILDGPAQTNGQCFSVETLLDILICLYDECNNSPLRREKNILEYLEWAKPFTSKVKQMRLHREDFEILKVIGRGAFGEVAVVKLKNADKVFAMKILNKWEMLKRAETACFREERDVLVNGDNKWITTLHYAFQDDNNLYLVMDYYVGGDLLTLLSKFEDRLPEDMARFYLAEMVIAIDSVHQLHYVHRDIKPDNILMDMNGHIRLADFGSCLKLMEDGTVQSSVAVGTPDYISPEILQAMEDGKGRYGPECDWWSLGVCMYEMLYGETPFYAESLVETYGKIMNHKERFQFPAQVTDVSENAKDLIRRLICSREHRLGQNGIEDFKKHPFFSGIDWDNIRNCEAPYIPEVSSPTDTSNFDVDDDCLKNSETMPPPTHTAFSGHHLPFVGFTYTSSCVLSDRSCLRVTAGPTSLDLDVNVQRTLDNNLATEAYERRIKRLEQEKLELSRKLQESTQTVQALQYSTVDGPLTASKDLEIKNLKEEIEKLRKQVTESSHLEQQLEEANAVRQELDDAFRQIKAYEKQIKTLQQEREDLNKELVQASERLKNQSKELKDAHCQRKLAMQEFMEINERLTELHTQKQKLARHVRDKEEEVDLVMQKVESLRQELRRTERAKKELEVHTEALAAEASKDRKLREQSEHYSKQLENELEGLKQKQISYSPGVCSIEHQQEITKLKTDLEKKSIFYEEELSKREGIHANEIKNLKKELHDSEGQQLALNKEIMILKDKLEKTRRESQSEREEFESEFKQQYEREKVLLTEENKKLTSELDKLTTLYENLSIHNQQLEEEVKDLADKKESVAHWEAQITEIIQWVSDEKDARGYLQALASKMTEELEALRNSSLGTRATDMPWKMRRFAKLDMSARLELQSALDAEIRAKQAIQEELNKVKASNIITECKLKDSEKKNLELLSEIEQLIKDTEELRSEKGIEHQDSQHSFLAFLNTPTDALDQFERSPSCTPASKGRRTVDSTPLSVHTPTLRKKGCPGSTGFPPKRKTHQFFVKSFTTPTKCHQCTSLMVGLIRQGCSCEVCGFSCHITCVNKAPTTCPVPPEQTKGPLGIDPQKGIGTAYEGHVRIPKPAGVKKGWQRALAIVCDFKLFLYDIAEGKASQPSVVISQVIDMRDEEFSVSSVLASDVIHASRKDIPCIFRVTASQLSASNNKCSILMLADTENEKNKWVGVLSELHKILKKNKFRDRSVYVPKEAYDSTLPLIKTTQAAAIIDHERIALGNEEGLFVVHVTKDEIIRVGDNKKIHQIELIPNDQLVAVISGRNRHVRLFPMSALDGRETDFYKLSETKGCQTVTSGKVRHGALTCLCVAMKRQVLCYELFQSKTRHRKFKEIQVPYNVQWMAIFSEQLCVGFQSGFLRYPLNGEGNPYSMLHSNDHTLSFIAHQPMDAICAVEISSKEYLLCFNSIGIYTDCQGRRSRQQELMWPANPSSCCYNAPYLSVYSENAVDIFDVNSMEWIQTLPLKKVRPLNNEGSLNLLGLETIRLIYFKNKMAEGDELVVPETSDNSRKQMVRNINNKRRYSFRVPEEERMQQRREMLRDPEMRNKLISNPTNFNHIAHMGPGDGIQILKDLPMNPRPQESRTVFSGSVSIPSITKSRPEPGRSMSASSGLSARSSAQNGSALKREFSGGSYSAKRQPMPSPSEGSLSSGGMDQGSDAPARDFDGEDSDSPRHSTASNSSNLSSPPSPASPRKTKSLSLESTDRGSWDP
# [6] = target: Phosphatidylinositol 4-kinase beta (Homo sapiens, UniProt Q9UBF8); test: Selectivity interaction (ActivX KiNativ screen (kinase selectivity in THP-1 cell lysates)) EUB0000639a PI4KB; type: subcellular; conditions: lysate, at 5 µM
# Phosphatidylinositol 4-kinase beta, sequence (Q9UBF8 2-816 limits assumed): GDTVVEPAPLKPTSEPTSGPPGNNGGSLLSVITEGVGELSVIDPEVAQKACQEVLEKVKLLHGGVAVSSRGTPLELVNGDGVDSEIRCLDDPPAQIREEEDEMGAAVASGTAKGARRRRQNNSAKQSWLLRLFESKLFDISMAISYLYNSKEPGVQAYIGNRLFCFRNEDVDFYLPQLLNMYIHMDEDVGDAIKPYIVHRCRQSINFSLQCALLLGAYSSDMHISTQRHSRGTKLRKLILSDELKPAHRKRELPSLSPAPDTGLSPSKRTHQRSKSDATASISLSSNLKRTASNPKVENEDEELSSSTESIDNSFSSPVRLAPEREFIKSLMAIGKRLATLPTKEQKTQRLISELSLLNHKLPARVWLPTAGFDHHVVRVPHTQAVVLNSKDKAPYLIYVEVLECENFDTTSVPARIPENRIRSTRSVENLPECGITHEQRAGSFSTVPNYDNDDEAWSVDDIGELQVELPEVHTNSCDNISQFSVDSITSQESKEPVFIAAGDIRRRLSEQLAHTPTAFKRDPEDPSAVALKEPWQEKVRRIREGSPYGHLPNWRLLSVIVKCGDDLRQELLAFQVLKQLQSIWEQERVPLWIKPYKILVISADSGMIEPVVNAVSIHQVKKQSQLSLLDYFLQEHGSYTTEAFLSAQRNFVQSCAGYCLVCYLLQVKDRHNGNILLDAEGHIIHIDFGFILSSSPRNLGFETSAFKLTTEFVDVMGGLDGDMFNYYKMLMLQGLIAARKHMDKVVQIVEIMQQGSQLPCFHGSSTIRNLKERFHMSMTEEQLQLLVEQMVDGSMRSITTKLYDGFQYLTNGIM
# [7] = target: Tyrosine-protein kinase CSK (Homo sapiens) (UniProt P41240); conditions: at 10 µM
# Tyrosine-protein kinase CSK (Homo sapiens), sequence (P41240 2-450 limits assumed): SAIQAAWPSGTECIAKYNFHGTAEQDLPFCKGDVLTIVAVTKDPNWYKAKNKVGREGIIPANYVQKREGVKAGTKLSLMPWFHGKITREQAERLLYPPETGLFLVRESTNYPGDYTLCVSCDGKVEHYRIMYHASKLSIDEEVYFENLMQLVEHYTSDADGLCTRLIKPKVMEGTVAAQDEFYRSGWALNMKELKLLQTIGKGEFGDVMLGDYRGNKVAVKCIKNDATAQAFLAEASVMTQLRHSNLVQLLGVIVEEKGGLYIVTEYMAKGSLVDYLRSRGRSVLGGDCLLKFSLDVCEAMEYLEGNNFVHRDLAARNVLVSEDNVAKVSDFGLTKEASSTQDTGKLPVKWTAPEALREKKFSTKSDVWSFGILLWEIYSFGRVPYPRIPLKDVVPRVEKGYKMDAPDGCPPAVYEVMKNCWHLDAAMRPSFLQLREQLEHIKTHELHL
# [8] = target: Ephrin type-A receptor 5 (Homo sapiens) (UniProt P54756); test: Selectivity interaction (KinomeScan (DiscoverX)) EUB0000595a EPHA5; conditions: at 10 µM
# [9] = target: TGF-beta receptor type-2 (Homo sapiens) (UniProt P37173); test: Selectivity interaction (KinomeScan (DiscoverX)) EUB0000092b TGFBR2; conditions: at 10 µM
# TGF-beta receptor type-2 (Homo sapiens), sequence (P37173 whole entry): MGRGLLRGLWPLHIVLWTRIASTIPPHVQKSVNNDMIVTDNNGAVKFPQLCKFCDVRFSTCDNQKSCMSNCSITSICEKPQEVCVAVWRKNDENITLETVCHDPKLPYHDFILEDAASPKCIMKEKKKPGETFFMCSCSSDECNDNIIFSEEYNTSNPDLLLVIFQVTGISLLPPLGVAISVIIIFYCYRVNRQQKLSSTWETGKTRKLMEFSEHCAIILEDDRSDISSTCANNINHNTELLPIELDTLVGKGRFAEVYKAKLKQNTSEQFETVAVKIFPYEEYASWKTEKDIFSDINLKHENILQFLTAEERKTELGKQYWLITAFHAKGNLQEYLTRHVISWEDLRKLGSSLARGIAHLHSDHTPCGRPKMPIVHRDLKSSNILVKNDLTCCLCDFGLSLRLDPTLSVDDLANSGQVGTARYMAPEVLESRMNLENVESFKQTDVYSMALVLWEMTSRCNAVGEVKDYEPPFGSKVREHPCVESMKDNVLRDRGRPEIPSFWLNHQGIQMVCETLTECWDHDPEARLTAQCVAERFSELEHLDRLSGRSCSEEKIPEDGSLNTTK
# [10] = target: Proto-oncogene tyrosine-protein kinase receptor Ret (Homo sapiens, UniProt P07949); test: Selectivity interaction (Kinase screening (Nanosyn)) EUB0000604a RET
# [11] = target: T1, Protein kinase C iota type (Homo sapiens) (UniProt P41743); test: Selectivity interaction (Ambit KINOMEscan and KiNATiv profiling in Jurkat cells) EUB0000090b PRKCI; type: cell-based; conditions: at 1 µM
# T1 sequence (whole entry): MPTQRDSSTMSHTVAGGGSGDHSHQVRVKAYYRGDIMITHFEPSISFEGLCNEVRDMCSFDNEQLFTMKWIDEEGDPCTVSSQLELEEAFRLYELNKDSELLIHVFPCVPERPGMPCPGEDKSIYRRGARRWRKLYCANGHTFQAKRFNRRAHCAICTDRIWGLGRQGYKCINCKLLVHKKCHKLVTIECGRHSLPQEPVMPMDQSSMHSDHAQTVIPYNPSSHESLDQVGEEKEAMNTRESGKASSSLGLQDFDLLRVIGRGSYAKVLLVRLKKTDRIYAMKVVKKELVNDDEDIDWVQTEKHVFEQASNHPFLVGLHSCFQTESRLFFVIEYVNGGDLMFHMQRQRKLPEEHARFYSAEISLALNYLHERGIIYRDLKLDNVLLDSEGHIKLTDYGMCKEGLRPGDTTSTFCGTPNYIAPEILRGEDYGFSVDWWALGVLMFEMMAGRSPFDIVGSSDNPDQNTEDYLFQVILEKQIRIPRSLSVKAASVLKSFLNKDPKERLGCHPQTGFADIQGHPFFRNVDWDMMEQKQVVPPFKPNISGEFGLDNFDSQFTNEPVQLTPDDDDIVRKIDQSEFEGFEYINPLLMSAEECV
# [12] = target: Insulin-like growth factor 1 receptor (Homo sapiens, UniProt P08069); test: Selectivity interaction (KinomeScan (DiscoverX)) EUB0000618a IGF1R; conditions: at 10 µM
# [13] = target: T2, Cyclin-G-associated kinase (Homo sapiens) (UniProt O14976); test: Selectivity interaction (KinomeScan (DiscoverX)) EUB0000618a GAK; conditions: at 10 µM
# T2 sequence (whole entry): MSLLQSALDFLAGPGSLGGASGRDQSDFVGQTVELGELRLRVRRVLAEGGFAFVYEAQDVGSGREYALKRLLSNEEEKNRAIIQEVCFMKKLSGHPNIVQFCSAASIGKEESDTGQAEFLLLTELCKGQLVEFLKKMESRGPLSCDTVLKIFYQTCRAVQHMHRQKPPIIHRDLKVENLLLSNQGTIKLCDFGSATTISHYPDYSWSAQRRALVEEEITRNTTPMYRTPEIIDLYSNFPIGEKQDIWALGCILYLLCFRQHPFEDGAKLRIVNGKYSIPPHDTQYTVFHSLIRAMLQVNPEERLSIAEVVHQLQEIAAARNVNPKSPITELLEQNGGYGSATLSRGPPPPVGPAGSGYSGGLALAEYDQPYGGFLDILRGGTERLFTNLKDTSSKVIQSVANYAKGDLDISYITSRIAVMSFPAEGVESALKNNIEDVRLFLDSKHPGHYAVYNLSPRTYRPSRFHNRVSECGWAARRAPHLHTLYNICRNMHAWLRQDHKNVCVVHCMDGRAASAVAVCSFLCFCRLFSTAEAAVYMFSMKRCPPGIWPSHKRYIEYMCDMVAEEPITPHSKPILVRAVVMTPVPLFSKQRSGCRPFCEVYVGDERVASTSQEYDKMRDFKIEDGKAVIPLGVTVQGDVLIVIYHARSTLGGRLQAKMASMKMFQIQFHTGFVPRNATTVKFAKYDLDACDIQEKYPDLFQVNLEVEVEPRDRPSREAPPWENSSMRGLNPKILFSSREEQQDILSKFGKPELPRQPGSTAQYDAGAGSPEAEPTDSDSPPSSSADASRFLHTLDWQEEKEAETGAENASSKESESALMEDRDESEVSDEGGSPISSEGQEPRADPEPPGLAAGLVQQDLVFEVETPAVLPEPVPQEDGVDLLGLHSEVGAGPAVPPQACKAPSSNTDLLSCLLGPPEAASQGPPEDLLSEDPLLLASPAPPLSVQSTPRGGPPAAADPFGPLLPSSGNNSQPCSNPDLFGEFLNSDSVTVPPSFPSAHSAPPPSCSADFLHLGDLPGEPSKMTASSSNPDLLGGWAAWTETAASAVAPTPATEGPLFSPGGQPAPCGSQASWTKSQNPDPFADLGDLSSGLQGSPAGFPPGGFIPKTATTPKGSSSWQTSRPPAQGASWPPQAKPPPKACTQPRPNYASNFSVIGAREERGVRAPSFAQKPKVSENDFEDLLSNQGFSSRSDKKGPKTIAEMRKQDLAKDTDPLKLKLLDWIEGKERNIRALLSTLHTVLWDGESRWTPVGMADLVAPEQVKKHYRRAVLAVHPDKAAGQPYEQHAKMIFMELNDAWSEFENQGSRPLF
# [14] = Selectivity interaction (KinomeScan (DiscoverX)) EUB0000618a CDPK1; conditions: at 10 µM
# [15] = target: Citron Rho-interacting kinase (Homo sapiens) (UniProt O14578); conditions: at 10 µM
# [16] = target: Tyrosine-protein kinase JAK1 (Homo sapiens, UniProt P23458); test: Selectivity interaction (ActivX KiNativ screen (ex vivo kinase selectivity in human PBMCs)) EUB0001619a JAK1; type: cell-based; conditions: PBMC, at 1 µM
# [17] = target: Tyrosine-protein kinase HCK (Homo sapiens) (UniProt P08631); test: Selectivity interaction (SelectScreen profiling (Invitrogen)) EUB0000607a HCK; conditions: at 2 µM
# Ribosomal protein S6 kinase alpha-4 (Homo sapiens), sequence (O75676 whole entry, looked up): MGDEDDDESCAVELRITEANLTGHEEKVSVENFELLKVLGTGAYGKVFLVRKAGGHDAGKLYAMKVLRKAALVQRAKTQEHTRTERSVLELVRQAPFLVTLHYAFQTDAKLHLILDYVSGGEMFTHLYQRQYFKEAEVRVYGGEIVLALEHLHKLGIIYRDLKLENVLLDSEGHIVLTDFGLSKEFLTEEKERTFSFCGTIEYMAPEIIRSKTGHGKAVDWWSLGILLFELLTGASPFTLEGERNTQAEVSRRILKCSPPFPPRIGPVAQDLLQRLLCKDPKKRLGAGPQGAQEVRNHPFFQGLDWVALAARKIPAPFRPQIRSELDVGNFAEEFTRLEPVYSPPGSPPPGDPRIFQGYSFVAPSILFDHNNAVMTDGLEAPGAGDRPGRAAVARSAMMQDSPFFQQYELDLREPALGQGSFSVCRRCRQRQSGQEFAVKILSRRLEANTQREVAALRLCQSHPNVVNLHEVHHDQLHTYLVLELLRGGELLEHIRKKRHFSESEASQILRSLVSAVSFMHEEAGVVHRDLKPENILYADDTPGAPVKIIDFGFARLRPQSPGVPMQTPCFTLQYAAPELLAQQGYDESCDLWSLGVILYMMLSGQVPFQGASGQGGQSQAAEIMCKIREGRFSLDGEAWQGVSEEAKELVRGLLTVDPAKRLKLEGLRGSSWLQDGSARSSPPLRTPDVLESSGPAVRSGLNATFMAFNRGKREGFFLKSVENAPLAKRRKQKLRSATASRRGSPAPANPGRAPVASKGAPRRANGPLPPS
smiles,measurement,setting,value
COc1cc(Nc2nc(C)cc(-c3cnn4nc(OC)ccc34)n2)cc(C(F)(F)F)c1,% of control,[1],84%
same,% of control,[2],100%
CCc1cc(Nc2nccc(-c3c(-c4ccc(OC)c(C(=O)Nc5c(F)cccc5F)c4)nc4ccccn34)n2)c(OC)cc1N1CCC(N2CCN(S(C)(=O)=O)CC2)CC1,% of inhibition,[3],81%
COc1cc(N(C)c2ccnc3ccc(C(F)(F)F)cc23)cc(OC)c1OC,% binding,[4],72%
CCN(CC)CCCCNc1ncc2cc(-c3cc(OC)cc(OC)c3)c(NC(=O)NC(C)(C)C)nc2n1,% of control,[5],100%
CC[C@@H]1[C@H](F)C(=O)N[C@@H]1COc1nccc2cc(C(N)=O)c(OC)cc12 [ZIMLOVISERTIB],% of inhibition,[6],5.2%
COCC(=O)NC/C=C/c1ccc2ncnc(Nc3ccc(Oc4ccc(C)nc4)c(C)c3)c2c1 [CP-724714],% of control,[7],59%
same,% of control,[8],100%
CCC(=O)N1CCN(c2ccc(-n3c(=O)ccc4cnc5ccc(-c6cnc7ccccc7c6)cc5c43)cc2C(F)(F)F)CC1,% of control,[9],77%
Cc1cnc(Nc2ccc(F)cc2Cl)nc1-c1c[nH]c(C(=O)N[C@H](CO)c2cccc(Cl)c2)c1,% of inhibition,[10],3%
CN(C)C/C=C/C(=O)Nc1ccc(C(=O)N2CCCC(Nc3ncc(Cl)c(-c4c[nH]c5ccccc45)n3)C2)cc1 (configuration not stated),% of control,[11],98%
O[C@H]1CC[C@H](Nc2ncc3nc(Nc4c(F)cc(F)cc4F)n([C@H]4CCOC4)c3n2)CC1,% of control,[12],90%
same,% of control,[13],13%
same,% of control,[14],1.5%
Cc1cc([C@@H](C)Nc2ccccc2C(=O)O)c2nc(N3CCOCC3)cc(=O)n2c1 [AZD-6482],% of control,[15],89%
N#Cc1cccc(-c2c[nH]c3ncnc(N4CCOCC4)c23)c1,% of inhibition,[16],-4%
CNC(=O)Nc1ccc(-c2nc(N3CC4CCC(C3)O4)c3cnn(C4CCC5(CC4)OCCO5)c3n2)cc1,% of inhibition,[17],5%
